ChEMBL document CHEMBL1641534, “Synthesis and antibacterial activity study of a novel class of cationic anthraquinone analogs” (Bioorg Med Chem, 2011)
Values after ≈ are worked out from the molar mass of the structure shown. Active and inactive are the calls of the source. The calls are words filed in the database; no cut-off is given here.

Assays:
[1] = system: Mycolicibacterium smegmatis; assay: Antibacterial activity against Mycobacterium smegmatis ATCC 14468 after 12 to 18 hrs by twofold dilution method; format: functional
Staphylococcus aureus [2] = assay: microbe, parasite or virus in culture; format: functional; settings: ATCC 33591
Description: (§1) Antibacterial activity against methicillin-resistant Staphylococcus aureus ATCC 33591 after 12 to 18 hrs by twofold dilution method

Staphylococcus aureus [3] = assay: microbe, parasite or virus in culture; format: functional; settings: ATCC 25923
Description: (§2) Antibacterial activity against Staphylococcus aureus ATCC 25923 after 12 to 18 hrs by twofold dilution method

Enterococcus faecalis [4] = assay: Antibacterial activity against vancomycin-resistant Enterococcus faecalis ATCC 51299 after 12 to 18 hrs by twofold dilution method; format: functional
Klebsiella pneumoniae [5] = assay: Antibacterial activity against Klebsiella pneumoniae ATCC 13883 after 12 to 18 hrs by twofold dilution method; format: functional
Escherichia coli [6] = assay: Antibacterial activity against Escherichia coli ATCC 25922 after 12 to 18 hrs by twofold dilution method; format: functional
Enterococcus faecalis [7] = assay: Antibacterial activity against Enterococcus faecalis ATCC 29212 after 12 to 18 hrs by twofold dilution method; format: functional
Pseudomonas aeruginosa [8] = assay: Antibacterial activity against Pseudomonas aeruginosa ATCC 27853 after 12 to 18 hrs by twofold dilution method; format: functional
Staphylococcus aureus [9] = assay: Antibacterial activity against Staphylococcus aureus ATCC 25923 by agar diffusion assay; format: functional, organism-based
[10] = Solubility of the compound in aqueous medium; format: physicochemical; settings: buffer
Escherichia coli [11] = assay: Antibacterial activity against Escherichia coli ATCC 25922 by agar diffusion assay; format: functional, organism-based
Staphylococcus aureus [12] = settings: ATCC 25923
Description: as §2

Enterococcus faecalis [13] = settings: ATCC 29212
Escherichia coli [14] = settings: ATCC 25922
Staphylococcus aureus [15] = settings: ATCC 33591
Description: as §1

[16] = system: Mycolicibacterium smegmatis; settings: ATCC 14468
Klebsiella pneumoniae [17] = settings: ATCC 13883
Pseudomonas aeruginosa [18] = settings: ATCC 27853
Enterococcus faecalis [19] = settings: ATCC 51299

Molecule	MIC [1] [µg/mL]	MIC (Staphylococcus aureus [2]) [µg/mL]	MIC (Staphylococcus aureus [3]) [µg/mL]	MIC (Enterococcus faecalis [4]) [µg/mL]	MIC (Klebsiella pneumoniae [5]) [µg/mL]	MIC (Escherichia coli [6]) [µg/mL]	MIC (Enterococcus faecalis [7]) [µg/mL]	MIC (Pseudomonas aeruginosa [8]) [µg/mL]	Activity (Staphylococcus aureus [9])	solubility [10]	Activity (Escherichia coli [11])	further results
CCCCCCCCCCCCn1n[n+](C)c2c1C(=O)c1ccccc1C2=O.[Cl-]	1	0.25	0.032	4	2	2	4	16	–	–	–	–
C[n+]1nn(C2CCNCC2)c2c1C(=O)c1ccccc1C2=O.[Cl-]	16	2	2	≥ 250	64	32	≥ 250	64	–	–	–	–
CCCCCCCCCCCCCCCCn1nnc2c1C(=O)c1ccccc1C2=O	–	–	–	–	–	–	–	–	inactive	Insoluble	inactive	–
O=C1c2ccccc2C(=O)c2c1nnn2Cc1ccccn1	–	–	–	–	–	–	–	–	inactive	Insoluble	inactive	–
C[n+]1nn(Cc2ccccn2)c2c1C(=O)c1ccccc1C2=O.[Cl-]	16	2	2	≥ 250	16	16	≥ 250	≥ 250	–	–	–	–
Cn1n[n+](C)c2c1C(=O)c1ccccc1C2=O.[Cl-]	32	4	4	125	64	32	≥ 250	125	–	–	–	–
Cn1nnc2c1C(=O)c1ccccc1C2=O	–	–	–	–	–	–	–	–	inactive	Insoluble	inactive	–
CCCCCn1n[n+](C)c2c1C(=O)c1ccccc1C2=O.[Cl-]	8	1	2	125	32	8	≥ 250	≥ 250	–	–	–	–
NCC[C@H](O)C(=O)N[C@@H]1C[C@H](N)[C@@H](O[C@H]2O[C@H](CN)[C@@H](O)[C@H](O)[C@H]2O)[C@H](O)[C@H]1O[C@H]1O[C@H](CO)[C@@H](O)[C@H](N)[C@H]1O [AMIKACIN]	0.25 (≈ 0.427 µM)	16 (≈ 27.3 µM)	0.5 (≈ 0.854 µM)	≥ 250	1 (≈ 1.71 µM)	1 (≈ 1.71 µM)	32 (≈ 54.6 µM)	0.25 (≈ 0.427 µM)	–	–	–	–
O=C1c2ccccc2C(=O)c2c1nnn2Cc1ccccc1	–	–	–	–	–	–	–	–	inactive	Insoluble	inactive	–
CCCCCn1nnc2c1C(=O)c1ccccc1C2=O	–	–	–	–	–	–	–	–	inactive	Insoluble	inactive	–
CCCCCCCCCCCCn1nnc2c1C(=O)c1ccccc1C2=O	–	–	–	–	–	–	–	–	inactive	Insoluble	inactive	–
hexadecyltrimethylammonium bromide	–	–	–	–	–	–	–	–	–	–	–	MIC (Staphylococcus aureus [12]): 0.5 µg/mL; MIC (Enterococcus faecalis [13]): 2 µg/mL; MIC (Escherichia coli [14]): 1 µg/mL; MIC (Staphylococcus aureus [15]): 2 µg/mL; MIC [16]: 1 µg/mL; MIC (Klebsiella pneumoniae [17]): 1 µg/mL; MIC (Pseudomonas aeruginosa [18]): 16 µg/mL; MIC (Enterococcus faecalis [19]): 4 µg/mL
NC[C@@H]1O[C@H](O[C@H]2[C@@H](O)[C@H](O[C@@H]3[C@@H](O)[C@H](N)C[C@H](N)[C@H]3O[C@H]3O[C@H](CN)[C@@H](O)[C@H](O)[C@H]3N)O[C@@H]2CO)[C@H](N)[C@@H](O)[C@@H]1O [FRAMYCETIN]	–	125 (≈ 203 µM)	1 (≈ 1.63 µM)	125 (≈ 203 µM)	2 (≈ 3.25 µM)	4 (≈ 6.51 µM)	16 (≈ 26 µM)	64 (≈ 104 µM)	–	–	–	–
CCCCCCCCCCCCCCCC[N+](C)(C)Cc1ccccc1.[Cl-] [CETALKONIUM CHLORIDE]	–	1	2	–	–	–	–	–	–	–	–	–
CC(C)(C)OC(=O)N1CCC(n2nnc3c2C(=O)c2ccccc2C3=O)CC1	–	–	–	–	–	–	–	–	inactive	Insoluble	inactive	–
CCn1n[n+](C)c2c1C(=O)c1ccccc1C2=O.[Cl-]	16	1	1	≥ 250	32	16	≥ 250	≥ 250	–	–	–	–
CCn1nnc2c1C(=O)c1ccccc1C2=O	–	–	–	–	–	–	–	–	inactive	Insoluble	inactive	–
CCCCCCCCn1n[n+](C)c2c1C(=O)c1ccccc1C2=O.[Cl-]	1	0.5	0.032	125	8	8	125	≥ 250	–	–	–	–
CCCCn1n[n+](C)c2c1C(=O)c1ccccc1C2=O.[Cl-]	16	1	2	≥ 250	32	16	≥ 250	≥ 250	–	–	–	–
CN[C@H](CC(C)C)C(=O)N[C@H]1C(=O)N[C@@H](CC(N)=O)C(=O)N[C@H]2C(=O)N[C@H]3C(=O)N[C@H](C(=O)N[C@H](C(=O)O)c4cc(O)cc(O)c4-c4cc3ccc4O)[C@H](O)c3ccc(c(Cl)c3)Oc3cc2cc(c3O[C@@H]2O[C@H](CO)[C@@H](O)[C@H](O)[C@H]2O[C@H]2C[C@](C)(N)[C@H](O)[C@H](C)O2)Oc2ccc(cc2Cl)[C@H]1O [VANCOMYCIN]	–	–	–	125 (≈ 86.3 µM)	≥ 250	≥ 250	1 (≈ 0.69 µM)	≥ 250	–	–	–	–
CCCCn1nnc2c1C(=O)c1ccccc1C2=O	–	–	–	–	–	–	–	–	inactive	Insoluble	inactive	–
C[n+]1nn(Cc2ccccc2)c2c1C(=O)c1ccccc1C2=O.[Cl-]	8	0.5	2	≥ 250	8	8	≥ 250	125	–	–	–	–
NC[C@H]1O[C@H](O[C@H]2[C@H](O)[C@@H](O[C@H]3O[C@H](CO)[C@@H](O)[C@H](N)[C@H]3O)[C@H](N)C[C@@H]2N)[C@H](O)[C@@H](O)[C@@H]1O [KANAMYCIN]	1 (≈ 2.06 µM)	125 (≈ 258 µM)	1 (≈ 2.06 µM)	–	0.5 (≈ 1.03 µM)	2 (≈ 4.13 µM)	–	125 (≈ 258 µM)	–	–	–	–
CCCCCCCCn1nnc2c1C(=O)c1ccccc1C2=O	–	–	–	–	–	–	–	–	inactive	Insoluble	inactive	–
